Read-outs that look alike come from different tables or passages of the source.
Assays:
wild-type Brd4^BD2 = wild-type Brd4^BD2 (Homo sapiens, UniProt O60885); conditions: cited from earlier work
MV-4-11 cells = assay: CellTiter-Glo cell viability assay, MV-4-11; type: cell-based, human; conditions: 24 h
Experimental: Cell Viability Assay. MV-4-11 cells were plated at a density of 2×10^4 cell per well of a 96 well white-bottom plate, and left to grow overnight in 50 μl of IMDM (Invitrogen, arlsebad, CA, USA) supplemented with 10% (v/v) Fetal bovine serum (FBS) (Thermo Fisher, Waltham, MA, USA) and 1% (v/v) penicillin/streptomycin (pen/strep) (#15140122, Thermo Fisher, Waltham, MA, USA) at 37° C., 5% CO2, and 95% humidity. […] These cells were then left to incubate at 37° C., 5% CO2, and 95% humidity for one day prior to undergoing spectrophotometric analysis. 22RV1 cells were plated at a density of 2×10^4 cell per well of a 96 well white-bottom plate, and left to grow overnight in 100 μL of RPMI-1640 (Invitrogen, Carlsebad, CA, USA) supplemented with 10% (v/v) fetal bovine serum (FBS) (Thermo Fisher, Waltham, MA, USA) and 1% (v/v) penicillin/streptomycin (pen/strep) (#15140122, Thermo Fisher, Waltham, MA, USA) at 37° C., 5% CO2, and 95% humidity. […] Plates were subjected to 2 mins on an orbital shaker to encourage lysis and left for a further 5 mins to reach peak luminescence. Luminescence was then recorded on a BMG Labtech PHERAstar luminescence plate reader with recommended settings. Data extracted from this analysis was analysed with Graphpad Prism (v. 8.2.0, GraphPad) and normalized to the DMSO vehicle control. […]

[1] = mice, values obtained from ref., cited from earlier work
Brd2, Brd3 and Brd4 = assay: First generation screen at 1 μM, 6 h: BET protein levels (western blot); type: cell-based, human
Experimental: Western Blotting. All cells were harvested on ice with RIPA lysis, and extraction buffer (ThermoFisher Scientific, 89901) supplemented with protease inhibitor cocktail (Merck, 11697498001) and Benzonase® Nuclease (Sigma, E1014) before being store at −20° C. prior to use. Total protein quantity was determined using the BCA protein assay (#23225, Pierce, Rockford, Illinois). Protein concentration was determined using the BCA assay (ThermoFisher Scientific, 23225). Samples were then prepared and loaded onto NuPAGE™ 4-12% Bis-Tris Midi gels (ThermoFisher Scientific, WG1403A), followed by the transfer of the proteins onto nitrocellulose membranes (EMD Millipore). […] All western blots were analysed for band intensities using Image Lab from Bio-Rad (LI-COR, Biosciences). The data extracted from these blots were then plotted and analysed using Prism (v. 8.2.0, GraphPad).
With this initial library in hand, we set out to evaluate the activity and selectivity of our I-BET-based B&H-PROTACs by treating our heterozygous BromoTag-Brd2 HEK293 cells with 1 μM of compounds 15-17 or 1 μM of control compounds MZP-15 (14), MZ1 (1) and cis-MZ1 for 6 h, which is sufficient time to achieve effective MZ1-induced BET protein degradation (FIG. 4A). Cells were harvested, and the subsequent lysate was analysed via western blot using antibodies against BET proteins; Brd2, Brd3 and Brd4 (FIG. 4A).

[2] = system: BRD2 in Bromotag-BRD2 CRISPR knock-in HEK293 cells; assay: TMT labeling mass spectrometry proteomics, tagged target; type: cell-based, human; conditions: 1 μM, 2 h; >6,621 proteins quantified
Experimental: (§1) Sample processing, TMT labelling and fractionation. CRISPR modified BromoTag-Brd2 HEK293 cells were seeded 5×10^6 cells on a […] 24 h before treatment. Cells were treated with either DMSO, 1 μM AGB1 or 1 μM cis-AGB1. 2 h post-treatment, the cells were washed twice with PBS. Cells were lysed in 150 μL of 100 mM TEAB, 5% (w/v) SDS. The lysate was sonicated for 10 s and then centrifuged at 15,000 g for 5 min with the supernatant collected post-centrifugation. Samples were then quantified using a micro-BCA protein assay kit (Thermo Fisher Scientific); 300 μg of each sample were then reduced, alkylated and then digested using Strap mini protocol (Protifi) protocol as described by the manufacturer (protifi) with some modification. Samples were double digested with trypsin (1:40) first overnight then for another 6 hrs with the same ratio (1:40) in 50 mM TEAB buffer. Peptides were quantified using a quantitative fluorometric peptide assay (Thermo Fisher Scientific). The samples (90 μg each) were labelled with a TMT 10-plex Isobaric Label Reagent set (Thermo Fisher Scientific) as per the manufacturer's instructions. After labelling, samples were checked for labelling efficiency, then mixed, desalted, and dried in a speed-vac at 30° C. Samples were re-dissolved in 200 μl ammonium formate (10 mM, pH 9.5) and peptides were fractionated using High pH RP Chromatography. […]

[3] = system: BRD3, BRD4 or any other endogenous protein; assay: TMT labeling mass spectrometry proteomics, off-targets; type: cell-based, human; conditions: 1 μM, 2 h; >6,621 proteins quantified
Experimental: as §1

For `CC[C@@H](C(=O)OC)[C@@H]1N=C(c2ccc(Cl)cc2)c2c(sc(C)c2C)-n2c(C)nnc21` [ET-JQ1-OMe], the “binding to the wild-type domain” value (wild-type Brd4^BD2) is given as “undetectable binding”.

In the case of `Cc1ncsc1-c1ccc(CNC(=O)[C@@H]2C[C@@H](O)CN2C(=O)[C@@H](NC(=O)COCCOCCOCCNC(=O)C[C@@H]2N=C(c3ccc(Cl)cc3)c3c(sc(C)c3C)-n3c(C)nnc32)C(C)(C)C)cc1` [MZ1 (1)], the EC50 (MV-4-11 cells) is listed as about 20 nM, the “T1/2” value ([1]; IV (5 mg/kg), 5 mg/kg) is listed as 1.04 h and the “AUCinf” value ([1]; IV (5 mg/kg)) is listed as 4.51 µM·h. For the same compound, the “CL” value ([1]; IV (5 mg/kg)) was 19.7 mL/min/kg, the “MRTinf” value ([1]; IV (5 mg/kg)) was 0.340 h and the “Vss” value ([1]; IV (5 mg/kg)) was 0.38 L/kg. The “T1/2” value ([1]; IV (5 mg/kg), listed as 1, 5 mg/kg) was 1.05 h, the “AUCinf” value ([1]; SC (5 mg/kg)) was 3.76 µM·h and the “F (%)” value ([1]; SC (5 mg/kg)) was 83%. For the same compound, the “T1/2” value ([1]; SC (5 mg/kg)) was 2.95 h.

In the case of `COc1ccc2c(c1)C(c1ccc(Cl)cc1)=NC(CC(=O)NCCOCCOCCOCC(=O)N[C@H](C(=O)N1C[C@H](O)C[C@H]1C(=O)NCc1ccc(-c3scnc3C)cc1)C(C)(C)C)c1nnc(C)n1-2` (stereo partly drawn) [MZP-15 (14), (2S,4R)-1-((2S)-2-(tert-butyl)-17-(6-(4-chlorophenyl)-8-methoxy-1-methyl-4H-benzo[fj][1,2,4]triazolo[4,3-a][1,4]diazepin-4-yl)-4,16-dioxo-6,9,12-trioxa-3,15-diazaheptadecanoyl)-4-hydroxy-N-(4-(4-methylthiazol-5-yl)benzyl)pyrrolidine-2-carboxamide], the “activity across all three BET family members relative to 1” value (Brd2, Brd3 and Brd4) is reported as “significant lower activity”.

For `CC[C@@H](C(=O)OCCOCCOCCOCC(=O)N[C@H](C(=O)N1C[C@@H](O)C[C@H]1C(=O)NCc1ccc(-c2scnc2C)cc1)C(C)(C)C)[C@@H]1N=C(c2ccc(Cl)cc2)c2c(sc(C)c2C)-n2c(C)nnc21` [cis-AGB1, (S)-13-((2S,4S)-4-hydroxy-2-((4-(4-methylthiazol-5-yl)benzyl)carbamoyl)pyrrolidine-1-carbonyl)-14,14-dimethyl-11-oxo-3,6,9-trioxa-12-azapentadecyl (R)-2-((S)-4-(4-chlorophenyl)-2,3,9-trimethyl-6H-thieno[3,2-f][1,2,4]triazolo[4,3-a][1,4]diazepin-6-yl)butanoate], the “BRD2 protein abundance (proteomics)” value [2] was “No significant changes”.

For “(S)-13-((2S,4R)-4-hydroxy-2-((4-(4-methylthiazol-5-yl)benzyl)carbamoyl)pyrrolidine-1-carbonyl)-14,14-dimethyl-11-oxo-3,6,9-trioxa-12-azapentadecyl (R)-2-((S)-4-(4-chlorophenyl)-2,3,9-trimethyl-6H-thieno[3,2-f][1,2,4]triazolo[4,3-a][1,4]diazepin-6-yl)butanoate [AGB1 (46)]”, the “BRD2 protein abundance (proteomics)” value [2] was “most significantly degraded” and the “depletion of BRD3, BRD4 or any other endogenous protein (proteomics)” value [3] was “no detectable depletion”.
